The source of these data is ChEMBL document CHEMBL4477231, “Design, synthesis and antiproliferative activity studies of novel dithiocarbamate-chalcone derivates” (Bioorg Med Chem Lett, 2016).

Molecules are shown by their SMILES. Activity calls are given as the source filed them. The rule behind the calls is not given here. Some results are limits rather than exact numbers.

Experiment [1] deals with ECa-109 cell line. Kind of experiment: Cytotoxicity against human EC109 cells assessed as cell growth inhibition after 72 hrs by MTT assay. Format: functional, cell-based. Particulars: ECa-109, 72 h. (In general: Tetrazolium dyes change colour on reduction, which living cells bring about.)
The subject of experiment [2] is MGC-803. Kind of experiment: Cytotoxicity against human MGC803 cells assessed as cell growth inhibition after 72 hrs by MTT assay. Format: functional, cell-based. The note with it: MGC-803, 72 h.
For experiment [3], the system named is SK-N-SH. In words: Cytotoxicity against human SK-N-SH cells assessed as cell growth inhibition after 72 hrs by MTT assay. It is filed as functional, cell-based.
For experiment [4], the system named is SK-N-SH. In words: Cell cycle arrest in human SK-N-SH cells assessed as accumulation at S phase at 5 uM after 24 hrs by propidium iodide staining based flow cytometry (reference value: 30.91 %). Format: functional. On the technique in general: A flow cytometer gives signals particle by particle.
The subject of experiment [5] is SK-N-SH. Kind of experiment: Cell cycle arrest in human SK-N-SH cells assessed as accumulation at G0/G1 phase at 2.5 uM after 24 hrs by propidium iodide staining based flow cytometry (reference value: 50.26 %). It is filed as functional.
The subject of experiment [6] is SK-N-SH. In words: Induction of apoptosis in human SK-N-SH cells at 5 uM by Annexin V-FITC/propidium iodide staining based flow cytometry. Particulars: TDE = time-dependent effect. It is filed as functional, cell-based.
Experiment [7] relates to SK-N-SH. In words: Cell cycle arrest in human SK-N-SH cells assessed as accumulation at G0/G1 phase at 5 uM after 48 hrs by propidium iodide staining based flow cytometry (reference value: 54.35 %). It is filed as functional.
Experiment [8] deals with GES1. In words: Cytotoxicity against human GES-1 cells assessed as reduction in cell viability after 72 hrs by MTT assay. The note with it: GES1, 72 h. Format: cell-based.
In experiment [9] the test system is SK-N-SH. Kind of experiment: Cell cycle arrest in human SK-N-SH cells assessed as accumulation at G2/M phase at 5 uM after 48 hrs by propidium iodide staining based flow cytometry (reference value: 18.35 %). It is filed as functional.
Experiment [10] deals with SK-N-SH. In words: Cell cycle arrest in human SK-N-SH cells assessed as accumulation at G0/G1 phase at 2.5 uM after 48 hrs by propidium iodide staining based flow cytometry (reference value: 54.35 %). It is filed as functional.
Experiment [11] deals with SK-N-SH. In words: Induction of apoptosis in human SK-N-SH cells at 5 uM after 24 hrs by Annexin V-FITC/propidium iodide staining based flow cytometry relative to control. It is filed as functional.
The test system of experiment [12] is SK-N-SH. Kind of experiment: Induction of apoptosis in human SK-N-SH cells assessed as increase in p53 expression at 2.5 to 5 uM after 48 hrs. Format: functional, cell-based.
The subject of experiment [13] is SK-N-SH. In words: Cell cycle arrest in human SK-N-SH cells assessed as accumulation at S phase at 2.5 uM after 48 hrs by propidium iodide staining based flow cytometry (reference value: 27.41 %). Format: functional.
In experiment [14] the test system is SK-N-SH. In words: Cell cycle arrest in human SK-N-SH cells assessed as accumulation at S phase at 2.5 uM after 24 hrs by propidium iodide staining based flow cytometry (reference value: 30.91 %). It is filed as functional.
For experiment [15], the system named is SK-N-SH. Kind of experiment: Induction of apoptosis in human SK-N-SH cells at 5 uM after 48 hrs by Annexin V-FITC/propidium iodide staining based flow cytometry relative to control. It is filed as functional.
For experiment [16], the system named is SK-N-SH. Kind of experiment: Cell cycle arrest in human SK-N-SH cells assessed as accumulation at G2/M phase at 2.5 uM after 48 hrs by propidium iodide staining based flow cytometry (reference value: 18.35 %). Format: functional.
Experiment [17] relates to SK-N-SH. In words: Induction of apoptosis in human SK-N-SH cells assessed as round cells at 5 uM after 24 to 48 hrs by Hoechst 33258 staining based fluorescence microscopy. It is filed as functional, cell-based.
For experiment [18], the system named is SK-N-SH. In words: Cell cycle arrest in human SK-N-SH cells assessed as accumulation at G0/G1 phase at 5 uM after 24 hrs by propidium iodide staining based flow cytometry (reference value: 50.26 %). It is filed as functional.
Experiment [19] deals with SK-N-SH. Kind of experiment: Cell cycle arrest in human SK-N-SH cells assessed as accumulation at S phase at 5 uM after 48 hrs by propidium iodide staining based flow cytometry (reference value: 27.41 %). It is filed as functional.
Experiment [20] concerns SK-N-SH. Kind of experiment: Induction of apoptosis in human SK-N-SH cells assessed as chromatin shrinkage at 5 uM after 24 to 48 hrs by Hoechst 33258 staining based fluorescence microscopy. Format: functional, cell-based.
Experiment [21] deals with SK-N-SH. Kind of experiment: Induction of apoptosis in human SK-N-SH cells assessed as reduction in procaspase-3 level at 2.5 to 5 uM after 48 hrs. Format: functional, cell-based.
The test system of experiment [22] is SK-N-SH. In words: Cell cycle arrest in human SK-N-SH cells assessed as accumulation at G2/M phase at 2.5 uM after 24 hrs by propidium iodide staining based flow cytometry (reference value: 17 %). Format: functional.
The test system of experiment [23] is SK-N-SH. Kind of experiment: Induction of apoptosis in human SK-N-SH cells assessed as formation of apoptotic bodies at 5 uM after 24 to 48 hrs by Hoechst 33258 staining based fluorescence microscopy. It is filed as functional, cell-based.
In experiment [24] the test system is SK-N-SH. In words: Cell cycle arrest in human SK-N-SH cells assessed as accumulation at G2/M phase at 5 uM after 24 hrs by propidium iodide staining based flow cytometry (reference value: 17 %). It is filed as functional.

The term IC50 denotes the point on the concentration scale where inhibition reaches its midpoint.

For `CN1CCN(C(=S)SCCCOc2ccc(C(=O)/C=C/c3ccc(Cl)cc3)cc2)CC1`, the IC50 in [1] came out at 34.2 µM; in experiment [2], 29.4 µM; in [3], 31.9 µM.
Regarding `O=C(/C=C/c1ccc(Cl)cc1)c1ccc(OCCCSC(=S)N2CCCC2)cc1`, the IC50 stood at 18.6 µM in experiment [1], 34.5 µM in experiment [2] and 19.1 µM in [3].
As to `O=C(/C=C/c1ccc(Cl)cc1)c1ccc(OCCSC(=S)N2CCOCC2)cc1`, the IC50 in experiment [1] came to 15.4 µM; in experiment [2], 11.5 µM; in [3], 11.7 µM.
Take `COc1cc(/C=C/C(=O)c2ccc(OCCCSC(=S)N3CCCC3)cc2)cc(OC)c1OC`: the half-maximal inhibitory concentration (IC50) came out at 11.1 µM in [1], 14.5 µM in experiment [2] and 12.8 µM in experiment [3].
Turning to `O=c1[nH]cc(F)c(=O)[nH]1` [FLUOROURACIL], the IC50 in experiment [2] worked out at 7.21 µM; in experiment [3], 9.84 µM.
For the molecule `CN1CCN(C(=S)SCCCOc2ccc(C(=O)/C=C/c3cc(Cl)cc(Cl)c3)cc2)CC1`, the IC50 is 12.4 µM in [1], 19.4 µM in experiment [2] and 24.6 µM in [3].
On the same counts, the results for `O=C(/C=C/c1cccs1)c1ccc(OCCSC(=S)N2CCCC2)cc1` are 18.2 µM, 32.4 µM and 19.1 µM.
As to `O=C(/C=C/c1cccnc1)c1ccc(OCCCSC(=S)N2CCCC2)cc1`, the IC50 in experiment [1] is 29.8 µM; in experiment [2], 19.5 µM; in experiment [3], 24.5 µM.
Turning to `COc1cc(/C=C/C(=O)c2ccc(OCCCSC(=S)N3CCN(C)CC3)cc2)cc(OC)c1OC`, the Activity in experiment [4] is 25.26%; in [5] it was 50.03%; in [6] it was “Tde”; in experiment [7], 74.85%; in experiment [9], 10.54%; in experiment [10], 59.64%. Further, the Activity is reported as 20.6% in experiment [11]; 26.02% in [13]; 31.19% in experiment [14]; 36.8% in experiment [15]; 13.81% in experiment [16]; 68.19% in experiment [18]. Also, the values for the Activity in [19], in experiment [22] and in [24] were 14.22%, 18.55% and 6.11%, respectively. Further, the IC50 in experiment [1] was 7.43 µM; in experiment [8] it was > 64 µM; in [2], 7.37 µM; in [3] it was 2.03 µM. Further, the outcome in experiment [12], in [17], in [20], in experiment [21] and in experiment [23] was Active.
Regarding `O=C(/C=C/c1cccs1)c1ccc(OCCCSC(=S)N2CCCCC2)cc1`, the half-maximal inhibitory concentration (IC50) in experiment [1] came to 36.4 µM; in [2] it was 41.3 µM; in [3], 38.2 µM.
As to `O=C(/C=C/c1ccc(Cl)cc1)c1ccc(OCCCSC(=S)N2CCCCC2)cc1`, the IC50 in [1] amounted to 42.6 µM; in [2], 56.8 µM; in [3], 32.2 µM.
In the case of `O=C(/C=C/c1cc(F)cc(F)c1)c1ccc(OCCCSC(=S)N2CCCC2)cc1`, the IC50 turned out to be 28.8 µM in experiment [1], 28.4 µM in experiment [2] and 36.1 µM in [3].
Regarding `COc1cc(/C=C/C(=O)c2ccc(OCCSC(=S)N3CCN(C)CC3)cc2)cc(OC)c1OC`, the IC50 is 10 µM in experiment [1], > 64 µM in [8], 8.28 µM in [2] and 2.46 µM in [3].
Take `CN1CCN(C(=S)SCCCOc2ccc(C(=O)/C=C/c3cc(F)cc(F)c3)cc2)CC1`: the IC50 in [1] was found to be 14.5 µM; in experiment [2] it was 16.3 µM; in [3], 13.2 µM.
As to `O=C(/C=C/c1ccc(Cl)cc1)c1ccc(OCCSC(=S)N2CCCC2)cc1`, the IC50 in experiment [1] was 27.8 µM; in experiment [2], 47.9 µM; in experiment [3], 18.3 µM.
On to `COc1ccc(/C=C/C(=O)c2ccc(OCCCSC(=S)N3CCN(C)CC3)cc2)cc1`, for which the figures for the IC50 in [1], in experiment [2] and in [3] were > 100 µM, 19.4 µM and 29.5 µM, respectively.
As for `COc1cc(/C=C/C(=O)c2ccc(OCCSC(=S)N3CCCCC3)cc2)cc(OC)c1OC`, the IC50 in experiment [1] is 38.9 µM; in experiment [2] it was 41.3 µM; in experiment [3], 48.4 µM.
As for `COc1cc(/C=C/C(=O)c2ccc(OCCSC(=S)N3CCCC3)cc2)cc(OC)c1OC`, the IC50 came to 10.7 µM in experiment [1], 31.7 µM in experiment [2] and 12.1 µM in experiment [3].
Turning to `O=C(/C=C/c1ccc(Cl)cc1)c1ccc(OCCSC(=S)N2CCCCC2)cc1`, the values for the IC50 in [1], in [2] and in experiment [3] were 26.1 µM, 12.8 µM and 27.4 µM, respectively.
